Structures can show the parent of a compound that is named as a salt. Where two headings read alike, the source gives them in different places.
Target: human TRPA1 channel (Homo sapiens (Human), UniProt O75762)
Assay: hTRPA1 CHO Ca2+ FLIPR Tetra assay: block of cinnamaldehyde induced calcium influx
Assay type: cell-based
Settings: CHO cells expressing TRPA1, Hill coefficient fixed to 1.5
How it was run: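 TRPA1-expressing CHO cells loaded with calcium indicator dye (1 h 37° C, then 15 min room temperature) in HBSS/20 mM HEPES pH 7.4/0.02% BSA. IC50 from fits with fixed Hill coefficient.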

[1] = read-out: hTRPA1 IC50 10 min, 10 minutes incubation with compound before cinnamaldehyde (about EC80)
[2] = read-out: hTRPA1 IC50 90 min, 90 minutes incubation with compound before cinnamaldehyde (about EC80)

human TRPA1 channel, sequence (O75762 whole entry): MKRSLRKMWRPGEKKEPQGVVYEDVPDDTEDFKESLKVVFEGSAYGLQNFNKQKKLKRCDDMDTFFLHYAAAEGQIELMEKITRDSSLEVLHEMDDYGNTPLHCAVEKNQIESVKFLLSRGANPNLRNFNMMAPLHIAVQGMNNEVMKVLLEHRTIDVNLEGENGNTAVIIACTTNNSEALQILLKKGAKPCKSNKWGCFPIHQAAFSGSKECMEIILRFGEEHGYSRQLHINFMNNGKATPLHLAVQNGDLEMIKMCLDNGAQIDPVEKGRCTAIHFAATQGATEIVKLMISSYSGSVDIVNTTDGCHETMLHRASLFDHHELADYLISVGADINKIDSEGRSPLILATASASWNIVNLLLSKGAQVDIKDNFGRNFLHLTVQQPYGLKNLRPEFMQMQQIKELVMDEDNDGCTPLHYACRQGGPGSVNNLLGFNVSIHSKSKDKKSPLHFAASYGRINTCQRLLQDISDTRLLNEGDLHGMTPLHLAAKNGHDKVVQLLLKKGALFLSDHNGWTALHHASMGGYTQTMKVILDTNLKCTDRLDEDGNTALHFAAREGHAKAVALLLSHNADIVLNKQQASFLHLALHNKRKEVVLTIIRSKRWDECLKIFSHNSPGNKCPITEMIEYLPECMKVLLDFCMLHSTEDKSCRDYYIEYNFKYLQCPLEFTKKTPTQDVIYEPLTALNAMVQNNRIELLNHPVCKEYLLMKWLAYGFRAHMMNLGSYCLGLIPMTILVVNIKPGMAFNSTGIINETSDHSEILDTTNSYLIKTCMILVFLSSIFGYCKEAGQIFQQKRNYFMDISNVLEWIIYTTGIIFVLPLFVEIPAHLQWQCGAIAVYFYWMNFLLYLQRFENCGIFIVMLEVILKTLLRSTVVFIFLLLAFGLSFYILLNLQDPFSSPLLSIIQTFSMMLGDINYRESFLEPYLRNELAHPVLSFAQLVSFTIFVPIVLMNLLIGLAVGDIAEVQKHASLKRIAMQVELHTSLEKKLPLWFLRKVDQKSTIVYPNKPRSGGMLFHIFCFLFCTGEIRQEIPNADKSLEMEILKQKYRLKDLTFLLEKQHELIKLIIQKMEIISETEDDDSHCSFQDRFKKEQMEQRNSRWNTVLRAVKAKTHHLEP

SMILES	IC50 [1] [nM]	IC50 [2] [nM]
Cn1cnc2nc(N)n(Cc3nc([C@@H]4CO[C@@H](c5cccc(F)c5)C4)no3)c(=O)c21 [Example 125, 2-amino-1-((3-((3R,5R)-5-(3-fluorophenyl)tetrahydrofuran-3-yl)-1,2,4-oxadiazol-5-yl)methyl)-7-methyl-1,7-dihydro-6H-purin-6-one]	40.5	3.1
Cc1cnn2nc(N)n(Cc3nc([C@@H]4CO[C@@H](c5cccc(F)c5)C4)no3)c(=O)c12 [Example 127, 2-amino-3-((3-((3R,5R)-5-(3-fluorophenyl)tetrahydro-3-yl)-1,2,4-oxadiazol-5-yl)methyl)-5-methylpyrazolo[5,1-f] [1,2,4]triazin-4(3H)-one]	17.9	2.9
Cc1cnc(N)n(Cc2nc([C@@H]3CO[C@@H](c4ccc(Cl)cc4)C3)no2)c1=O [Example 128, 2-amino-3-((3-((3R,5R)-5-(4-chlorophenyl)tetra-hydrofuran-3-yl)-1,2,4-oxadiazol-5-yl)methyl)-5-methylpyrimidin-4(3H)-one]	146	67
Cn1cnc2c(C#N)nn(Cc3nc([C@@H]4CO[C@@H](c5ccc(Cl)cc5)C4)no3)c(=O)c21 [Example 131, 6-((3-((3R,5R)-5-(4-chlorophenyl)tetrahydro-furan-3-yl)-1,2,4-oxadiazol-5-yl)methyl)-1-methyl-7-oxo-6,7-dihydro-1H-imidazo[4,5-d]pyridazine-4-carbonitrile]	7.42	3.1
Cc1ccnc2c1c(=O)nc(N)n2Cc1nc([C@@H]2CO[C@@H](c3ccc(Cl)cc3)C2)no1 [Example 134, 2-amino-1-((3-((3R,5R)-5-(4-chlorophenyl)tetrahydro-furan-3-yl)-1,2,4-oxadiazol-5-yl)methyl)-5-methylpyrido[2,3-d] pyrimidin-4(1H)-one]	20	6
Cn1cnc2nc(N)n(Cc3nc([C@@H]4CO[C@@H](c5ccc(C(F)(F)F)cc5)C4)no3)c(=O)c21 [Example 136, 2-amino-7-methyl-1-((3-((3R,5R)-5-(4-(trifluoromethyl)phenyl)tetrahydrofuran-3-yl)-1,2,4-oxadiazol-5-yl)methyl)-1,7-dihydro-6H-purin-6-one]	97.3	11
Cc1cnn2ncn(Cc3nc([C@@H]4CO[C@@H](c5ccc6cnn(C)c6c5)C4)no3)c(=O)c12 [Example 138, 5-methyl-3-((3-((3R,5R)-5-(1-methyl-1H-indazol-6-yl)tetrahydrofuran-3-yl)-1,2,4-oxadiazol-5-yl)methyl)pyrazolo[5,1-f][1,2,4]triazin-4(3H)-one]	8.26	2.3
Cc1cnn2ncn(Cc3nc([C@@H]4CO[C@@H](c5ccc6cn[nH]c6c5)C4)no3)c(=O)c12 [Example 139, 3-((3-((3R,5R)-5-(1H-indazol-6-yl)tetrahydrofuran-3-yl)-1,2,4-oxadiazol-5-yl)methyl)-5-methylpyrazolo[5,1-f] [1,2,4]triazin-4(3H)-one]	19.5	7.5
Cn1nnc2cnn(Cc3nc([C@@H]4CO[C@@H](c5ccc(Cl)cc5)C4)no3)c(=O)c21 [Example 140, 5-((3-((3R,5R)-5-(4-chlorophenyl)tetrahydro-furan-3-yl)-1,2,4-oxadiazol-5-yl)methyl)-3-methyl-3,5-dihydro-4H-[1,2,3]triazolo[4,5-d]pyridazin-4-one]	80.1	43
Cc1cnn2ncn(Cc3nc([C@@H]4CO[C@@H](c5ccc6ncsc6c5)C4)no3)c(=O)c12 [Example 142, 3-((3-((3R,5R)-5-(benzo[d]thiazol-6-yl)tetrahydrofuran-3-yl)-1,2,4-oxadiazol-5-yl)methyl)-5-methylpyrazolo[5,1-f] [1,2,4]triazin-4(3H)-one]	81.7	40
O=c1c2c(cnn1Cc1nc([C@@H]3CO[C@@H](c4ccc(Cl)cc4)C3)no1)CNCC2 [Example 146, 2-((3-((3R,5R)-5-(4-chlorophenyl)tetrahydro-furan-3-yl)-1,2,4-oxadiazol-5-yl)methyl)-5,6,7,8-tetrahydropyrido[3,4-d] pyridazin-1(2H)-one hydrochloride]	2600	97
Cc1cnn2ncn(Cc3nc([C@@H]4CO[C@@H](c5ccc(Cl)cn5)C4)no3)c(=O)c12 [Example 148, 3-((3-((3R,5R)-5-(5-chloropyridin-2-yl)tetrahydrofuran-3-yl)-1,2,4-oxadiazol-5-yl)methyl)-5-methylpyrazolo[5,1-f] [1,2,4]triazin-4(3H)-one]	21.3	14
Nc1nn2c(C(F)(F)F)ncc2c(=O)n1Cc1nc([C@@H]2CO[C@@H](c3ccc(Cl)cc3)C2)no1 [Example 149, 2-amino-3-((3-((3R,5R)-5-(4-chlorophenyl)tetrahydro-furan-3-yl)-1,2,4-oxadiazol-5-yl)methyl)-7-(trifluoromethyl)imidazo [5,1-f][1,2,4]triazin-4(3H)-one]	4.48	2.1
Cn1ncc2nc(N)n(Cc3nc([C@@H]4CO[C@@H](c5ccc(Cl)cc5)C4)no3)c(=O)c21 [Example 150, 5-amino-6-((3-((3R,5R)-5-(4-chlorophenyl)tetrahydro-furan-3-yl)-1,2,4-oxadiazol-5-yl)methyl)-1-methyl-1,6-dihydro-7H-pyrazolo[4,3-d] pyrimidin-7-one]	3.19	1.7

Next, values leading:

IC50 [1] [nM]	IC50 [2] [nM]	SMILES
89.9	36	Nc1nc2ncn(Cc3nc([C@@H]4CO[C@@H](c5ccc(F)cc5)C4)no3)c(=O)c2s1 [Example 126, 2-amino-6-((3-((3R,5R)-5-(4-fluorophenyl)tetrahydrofuran-3-yl)-1,2,4-oxadiazol-5-yl)methyl) thiazolo[4,5-d]pyrimidin-7(6H)-one]
15.1	5.6	Nc1nc2ncn(Cc3nc([C@@H]4CO[C@@H](c5ccc(Cl)cc5)C4)no3)c(=O)c2s1 [Example 129, 2-amino-6-((3-((3R,5R)-5-(4-chlorophenyl)tetrahydrofuran-3-yl)-1,2,4-oxadiazol-5-yl)methyl)thiazolo[4,5-d] pyrimidin-7(6H)-one]
83.3	15	Nc1nc(=O)c2cccnc2n1Cc1nc([C@@H]2CO[C@@H](c3ccc(F)cc3)C2)no1 [Example 130, 2-amino-1-((3-((3R,5R)-5-(4-fluorophenyl)tetra-hydrofuran-3-yl)-1,2,4-oxadiazol-5-yl)methyl) pyrido[2,3-d]pyrimidin-4(1H)-one]
13.4	1.4	Cc1ccnc2nc(N)n(Cc3nc([C@@H]4CO[C@@H](c5ccc(F)cc5)C4)no3)c(=O)c12 [Example 133, 2-amino-3-((3-((3R,5R)-5-(4-fluorophenyl)tetra-hydrofuran-3-yl)-1,2,4-oxadiazol-5-yl)methyl)-5-methylpyrido[2,3-d] pyrimidin-4(3H)-one]
10.4	1.5	Cc1ccnc2nc(N)n(Cc3nc([C@@H]4CO[C@@H](c5ccc(Cl)cc5)C4)no3)c(=O)c12 [Example 135, 2-amino-3-((3-((3R,5R)-5-(4-chlorophenyl)tetrahydro-furan-3-yl)-1,2,4-oxadiazol-5-yl)methyl)-5-methylpyrido[2,3-d] pyrimidin-4(3H)-one]
64.1	13	Cc1nc2ncn(C)c2c(=O)n1Cc1nc([C@@H]2CO[C@@H](c3ccc(F)cc3)C2)no1 [Example 137, 1-((3-((3R,5R)-5-(4-fluorophenyl)tetrahydro-furan-3-yl)-1,2,4-oxadiazol-5-yl)methyl)-2,7-dimethyl-1,7-dihydro-6H-purin-6-one]
30.9	11	Cn1cnc2nnn(Cc3nc([C@@H]4CO[C@@H](c5ccc(Cl)cc5)C4)no3)c(=O)c21 [Example 141, 3-((3-((3R,5R)-5-(4-chlorophenyl)tetrahydro-furan-3-yl)-1,2,4-oxadiazol-5-yl)methyl)-5-methyl-3,5-dihydro-4H-imidazo[4,5-d][1,2,3] triazin-4-one]
56.9	6.6	Nc1nn2ncc(Cl)c2c(=O)n1Cc1nc([C@@H]2CO[C@@H](c3ccc(F)cc3)C2)no1 [Example 143, 2-amino-5-chloro-3-((3-((3R,5R)-5-(4-fluorophenyl)tetrahydro-furan-3-yl)-1,2,4-oxadiazol-5-yl)methyl)pyrazolo[5,1-f][1,2,4]triazin-4(3H)-one]
56.9	6.6	Cn1cnc2nc(N)n(Cc3nc([C@@H]4CO[C@@H](c5ccc(F)cc5)C4)no3)c(=O)c21 [Example 144, 2-amino-1-((3-((3R,5R)-5-(4-fluorophenyl)tetrahydro-furan-3-yl)-1,2,4-oxadiazol-5-yl)methyl)-7-methyl-1,7-dihydro-6H-purin-6-one]
9.28	46	Cc1c(N)nn2ncn(Cc3nc([C@@H]4CO[C@@H](c5ccc(F)cc5)C4)no3)c(=O)c12 [Example 145, 6-amino-3-((3-((3R,5R)-5-(4-fluorophenyl)tetrahydro-furan-3-yl)-1,2,4-oxadiazol-5-yl)methyl)-5-methylpyrazolo[5,1-f][1,2,4]triazin-4(3H)-one]
107	82	O=c1c2cccnc2ncn1Cc1nc([C@@H]2CO[C@@H](c3ccc(F)cc3)C2)no1 [Example 147, 3-((3-((3R,5R)-5-(4-fluorophenyl)tetrahydro-furan-3-yl)-1,2,4-oxadiazol-5-yl)methyl)pyrido[2,3-d]pyrimidin-4(3H)-one]
47	32	Cn1ncc2ncn(Cc3nc([C@@H]4CO[C@@H](c5ccc(Cl)cc5)C4)no3)c(=O)c21 [Example 151, 6-((3-((3R,5R)-5-(4-chlorophenyl)tetrahydro-furan-3-yl)-1,2,4-oxadiazol-5-yl)methyl)-1-methyl-1,6-dihydro-7H-pyrazolo[4,3-d] pyrimidin-7-one]
